Laboratory results taken from PubChem BioAssay (NCI).
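Assay format: 96-well plates, 48-hour exposure. At the GI50, growth is halved. TGI denotes the concentration required for complete inhibition of growth.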

Key:
Assay in all cases: NCI tumour cell line growth inhibition, 48 h
IGROV1 ovarian = system: IGROV1 ovarian
K-562 leukemia = system: K-562 leukemia
MALME-3M melanoma = system: MALME-3M melanoma
OVCAR-4 ovarian = system: OVCAR-4 ovarian
OVCAR-5 ovarian = system: OVCAR-5 ovarian
RPMI-8226 leukemia = system: RPMI-8226 leukemia
SK-OV-3 ovarian = system: SK-OV-3 ovarian
TK-10 renal = system: TK-10 renal
U251 CNS = system: U251 CNS
UO-31 renal = system: UO-31 renal

SMILES	TGI (IGROV1 ovarian)	TGI (K-562 leukemia)	TGI (MALME-3M melanoma)	TGI (OVCAR-4 ovarian)	TGI (OVCAR-5 ovarian)	TGI (RPMI-8226 leukemia)	TGI (SK-OV-3 ovarian)	TGI (TK-10 renal)	TGI (U251 CNS)	TGI (UO-31 renal)	GI50 (IGROV1 ovarian)	GI50 (K-562 leukemia)	GI50 (MALME-3M melanoma)	GI50 (OVCAR-4 ovarian)	GI50 (OVCAR-5 ovarian)	GI50 (RPMI-8226 leukemia)	GI50 (U251 CNS)
O=C1c2cccnc2-c2nccc3c2c1nc1ccccc13	1.33 µM	0.667 µM	0.603 µM	3.56 µM	1.65 µM	1.17 µM	1.19 µM	2.84 µM	0.703 µM	0.634 µM							
CC(NNC(=O)c1ccncc1)c1cccc(C(F)(F)F)c1 (configuration not stated)	> 100 µM	> 100 µM	> 100 µM	> 100 µM	> 100 µM	> 100 µM	> 100 µM	> 100 µM	> 100 µM	> 100 µM							
COc1cccc(OC)c1NC(=O)C(=O)Nn1c(NNC(=O)c2ccncc2)nc2ccccc2c1=O	> 100 µM	> 100 µM	> 100 µM	> 100 µM	> 100 µM	> 100 µM	> 100 µM	> 100 µM	> 100 µM	> 100 µM							
COc1ccc(NC(=O)C(=O)Cc2ccc([N+](=O)[O-])c([N+](=O)[O-])c2CC(=O)C(=O)Nc2ccc(OC)cc2OC)c(OC)c1	> 100 µM	> 100 µM	> 100 µM	> 100 µM	> 100 µM	> 100 µM	> 100 µM	> 100 µM	> 100 µM	> 100 µM							
N#COc1ccc(Oc2ccc(OC#N)cc2)cc1	> 100 µM	> 100 µM	> 100 µM	> 100 µM	> 100 µM	> 100 µM	> 100 µM	> 100 µM	> 100 µM	> 100 µM							
COC(=O)c1c2c(cc3c1CC1(Cc4ccccc4C1)C3)CCC2	> 100 µM	24.3 µM	67.2 µM	> 100 µM	> 100 µM	45.8 µM	> 100 µM	> 100 µM	48.6 µM	> 100 µM							
CCNC(=S)NNC(=O)c1ccccc1Nc1ccccc1C(=O)NNC(=S)NCC	> 100 µM	> 100 µM	> 100 µM	> 100 µM	> 100 µM	> 100 µM	> 100 µM	> 100 µM	> 100 µM	> 100 µM							
NC1=Nc2ccccc2Sc2cccc(F)c21	> 100 µM	> 100 µM	> 100 µM	> 100 µM	> 100 µM	> 100 µM	> 100 µM	> 100 µM	> 100 µM	> 100 µM							
COc1ccc([I+]c2ccc(OC)cc2)cc1	> 100 µM	> 100 µM	> 100 µM	> 100 µM	> 100 µM	> 100 µM	> 100 µM	> 100 µM	> 100 µM	> 100 µM	15.7 µM	2.74 µM	13.8 µM	3.33 µM	> 60.8 µM	4.16 µM	7.58 µM
COc1ccc2c(c1)/c(=C/C#N)c1c3ccccc3[n+](C)n21	31 µM	> 69.8 µM	14.3 µM	22.9 µM	42.8 µM	8.03 µM	> 100 µM	20.7 µM	40.8 µM	36.9 µM							
CC12CCc3ccccc3C1=NNC(=O)C2 (configuration not stated)	> 100 µM	> 100 µM	> 100 µM	> 100 µM	> 100 µM	> 100 µM	> 100 µM	> 100 µM	> 100 µM	> 100 µM							
Cc1cc(C)n(-c2nc(C)c(CCO)c(=O)[nH]2)n1	> 100 µM	> 100 µM	> 100 µM	> 100 µM	> 100 µM	> 100 µM	> 100 µM	> 100 µM	> 100 µM	> 100 µM							
CCCCCCCCCCCC[N+]12CC[N+](C)(CC1)CC2	11.8 µM	53.2 µM	> 100 µM	> 100 µM	41 µM	41.7 µM	> 100 µM	5.6 µM	29.9 µM	> 100 µM							
Cc1ccnc(Nc2[nH]c(C(=O)c3ccc(Cl)cc3)c(N)c2C(=S)Nc2ccccc2)c1	30.9 µM	52.4 µM	29.6 µM	29.4 µM	55.3 µM	31.3 µM	35 µM	69.2 µM	33.2 µM	37.2 µM							
COc1ccc(/C=C/C(=O)c2ccc(Br)cc2)cc1	> 100 µM	> 100 µM	> 100 µM	> 100 µM	> 100 µM	> 100 µM	> 100 µM	> 100 µM	> 100 µM	> 100 µM							
CN(C)CCC[N+]1=Nc2cccc3cccc(c23)N1	> 100 µM	> 100 µM	> 100 µM	> 100 µM	> 100 µM	47.3 µM	> 100 µM	> 100 µM	> 100 µM	> 100 µM							
COc1ccc(-c2oc3cc(O)c(OC)c(O)c3c(=O)c2O)cc1	> 100 µM	> 53.5 µM	88.2 µM	> 100 µM	> 70.1 µM	31.5 µM	42.8 µM	> 100 µM	30.2 µM	> 61.3 µM							
COc1cc2c[n+](C)c3c4cc(OC)c(OCc5ccccc5)cc4c(OCc4ccccc4)cc3c2cc1OC	13.2 µM	> 25 µM	10.7 µM	> 55 µM	> 100 µM	> 86 µM	> 52.8 µM	79 µM	12.9 µM	> 100 µM							

SMILES	TGI (IGROV1 ovarian)	TGI (K-562 leukemia)	TGI (MALME-3M melanoma)	TGI (OVCAR-4 ovarian)	TGI (OVCAR-5 ovarian)	TGI (RPMI-8226 leukemia)	TGI (SK-OV-3 ovarian)	TGI (TK-10 renal)	TGI (U251 CNS)	TGI (UO-31 renal)	GI50 (IGROV1 ovarian)	GI50 (K-562 leukemia)	GI50 (MALME-3M melanoma)	GI50 (OVCAR-4 ovarian)	GI50 (OVCAR-5 ovarian)	GI50 (RPMI-8226 leukemia)	GI50 (U251 CNS)
CC(=O)NC(C)(C)C1CCC(C)CC1 (configuration not stated)	> 100 µM	> 100 µM	> 100 µM	> 100 µM	> 100 µM	> 100 µM	> 100 µM	> 100 µM	> 100 µM	> 100 µM							
CC1CN(CCO)CCN1c1ccccc1 (configuration not stated)	> 100 µM	> 100 µM	> 100 µM	> 100 µM	> 100 µM	> 100 µM	> 100 µM	> 100 µM	> 100 µM	> 100 µM							
O=c1/c(=C/c2ccccn2)sc2nc3cc4c(cc3n12)OCCO4	> 100 µM	> 100 µM	> 100 µM	> 100 µM	> 100 µM	> 100 µM	> 100 µM	> 100 µM	> 100 µM	> 100 µM							
COc1ccc(N2C(=O)/C(=C/c3ccc(N(CCC#N)CCC#N)cc3)N=C2c2ccccc2)cc1	> 100 µM	> 100 µM	> 100 µM	> 100 µM	> 100 µM	> 100 µM	> 100 µM	> 100 µM	> 100 µM	> 100 µM							
O=c1c2c3c(sc2nc2n1NC=NN2)CCCC3	> 56.6 µM	6.81 µM	55.3 µM	34.1 µM	35.9 µM	50.6 µM	> 65.5 µM	> 56 µM	35 µM	> 64.3 µM							
CCOC(=O)c1nc2cc(Cl)ccc2[nH]c1=O	> 100 µM	> 100 µM	> 100 µM	> 100 µM	> 100 µM	> 100 µM	> 100 µM	> 100 µM	> 100 µM	> 100 µM							
O=C(NC1=C(Cl)C(=O)c2ccccc2C1=O)C(=O)C(C(=O)c1ccc2ccccc2c1)C1OC(=O)c2ccccc21 (configuration not stated)	27 µM	25.6 µM	4.16 µM	19.8 µM	27.5 µM	26.2 µM	44 µM	65.1 µM	18.5 µM	29.4 µM							
O=C1CC(c2ccccc2)n2c(nc3ccccc32)N1 (configuration not stated)	> 100 µM	> 100 µM	> 100 µM	> 100 µM	> 100 µM	> 100 µM	> 100 µM	> 100 µM	> 100 µM	> 100 µM							
Cc1ccc(NC(=O)C2C3CCC(O3)C2C(=O)O)cc1 (configuration not stated)	> 100 µM	> 77.6 µM	> 100 µM	> 100 µM	> 100 µM	> 68.8 µM	> 100 µM	> 100 µM	> 100 µM	> 100 µM							
CN(C)CC1CCC/C(=C\c2ccc(OC(=O)/C=C/c3ccc(Cl)cc3)cc2)C1=O (configuration not stated)	3.35 µM	4.04 µM	16.3 µM	35.9 µM	25.7 µM	1.8 µM	50 µM	4.73 µM	9.97 µM	12.8 µM							
O=C(CC(C(=O)c1cccs1)c1ccsc1)c1ccc(Cl)s1 (configuration not stated)	> 100 µM	> 100 µM	> 100 µM	> 100 µM	> 100 µM	> 100 µM	> 100 µM	> 100 µM	> 100 µM	> 100 µM							
C=C1CCOC2(C(O)C(C)(O)CO)NC(=O)C1(O)NC2=O (configuration not stated)	> 100 µM	> 100 µM	> 100 µM	> 100 µM	> 100 µM	> 100 µM	> 100 µM	> 100 µM	> 100 µM	> 100 µM							
Cc1cc(O)c2c(c1)C(C1c3cccc(O)c3C(=O)c3c(O)cc(C)cc31)c1cccc(O)c1C2=O (configuration not stated)	4.56 µM	11.7 µM	1.25 µM	5.1 µM	11.8 µM	0.8 µM	1.69 µM	20.6 µM	12.3 µM	1.78 µM							
Cc1nn2c(c1C#N)NNc1c-2sc(=N)nnc1=O	> 100 µM	> 100 µM	> 100 µM	> 100 µM	> 100 µM	> 100 µM	> 100 µM	> 100 µM	> 100 µM	> 100 µM							
CCC(Nc1ncnc2nc[nH]c12)C(=O)O (configuration not stated)	> 100 µM	> 100 µM	> 100 µM	> 100 µM	> 100 µM	> 100 µM	> 100 µM	> 100 µM	> 100 µM	> 100 µM							
N#CC1=C(N)N(/N=C/c2ccco2)C(c2ccco2)C1(C#N)C#N (configuration not stated)	30 µM	85.1 µM	43.4 µM	32.5 µM	41.7 µM	44 µM	83.8 µM	32.4 µM	36.1 µM	34.4 µM							
COC(=O)C(=O)C(C(=O)OC)C(=O)C(=O)Nc1c(Cl)cc([N+](=O)[O-])cc1Cl (configuration not stated)	> 100 µM	> 100 µM	> 100 µM	> 100 µM	> 100 µM	> 100 µM	> 100 µM	> 100 µM	> 100 µM	> 100 µM							
CN(C)S(=O)(=O)c1nc(Cl)c2[nH]cnc2n1	> 100 µM	> 100 µM	> 100 µM	> 100 µM	> 100 µM	> 100 µM	> 100 µM	> 100 µM	> 100 µM	> 100 µM							
